Paper PMC11956017, “Design of Benzyl-triazolopyrimidine-Based NADPH Oxidase Inhibitors Leads to the Discovery of a Potent Dual Covalent NOX2/MAOB Inhibitor” (Journal of Medicinal Chemistry, 2025)

Assays:
[1] = system: dehydrogenase domain of csNOX5; test: NADPH depletion assay on csNOX5 dehydrogenase domain; format: biochemical, Cylindrospermum stagnale; conditions: 10 μM inhibitor; 1 μM purified protein, 250 μM NADPH
Protocol: A series of derivatives were synthesized and tested at 10 μM against the dehydrogenase domain of NOX5 from Cylindrospermum stagnale (C. stagnale, CsNOX5; Figure 2B).
The NADPH depletion assay for IC50 determinations was performed as described[10] with modifications for covalent inhibitors, which require longer incubation times. Briefly, the catalytic activity was measured by monitoring the absorbance at 340 nm with a Cary 100 UV–vis spectrophotometer (Varian). A 1 μM portion of purified protein was added in a final volume of 130 μL of 50 mM HEPES pH 7.5 and supplemented with 300 μM FAD. Inhibitors were added at varying concentrations and incubated for 1 h at 25 °C.

[2] = target: T1, human NOX4 (Homo sapiens, UniProt Q9NPH5); test: Human NOX4 isolated membranes, Amplex Red/horseradish peroxidase coupled assay; format: biochemical; conditions: membrane-embedded; 40 μM NADPH; read-out: IC50 on human NOXs, NOX4 (AMPLEX RED)
T1 construct: expressed in transfected cells; host or cells: HEK293 F cells, transient transfection (pTT22 and pYD7 vectors); isolated membranes
T1 sequence (Q9NPH5 1-578): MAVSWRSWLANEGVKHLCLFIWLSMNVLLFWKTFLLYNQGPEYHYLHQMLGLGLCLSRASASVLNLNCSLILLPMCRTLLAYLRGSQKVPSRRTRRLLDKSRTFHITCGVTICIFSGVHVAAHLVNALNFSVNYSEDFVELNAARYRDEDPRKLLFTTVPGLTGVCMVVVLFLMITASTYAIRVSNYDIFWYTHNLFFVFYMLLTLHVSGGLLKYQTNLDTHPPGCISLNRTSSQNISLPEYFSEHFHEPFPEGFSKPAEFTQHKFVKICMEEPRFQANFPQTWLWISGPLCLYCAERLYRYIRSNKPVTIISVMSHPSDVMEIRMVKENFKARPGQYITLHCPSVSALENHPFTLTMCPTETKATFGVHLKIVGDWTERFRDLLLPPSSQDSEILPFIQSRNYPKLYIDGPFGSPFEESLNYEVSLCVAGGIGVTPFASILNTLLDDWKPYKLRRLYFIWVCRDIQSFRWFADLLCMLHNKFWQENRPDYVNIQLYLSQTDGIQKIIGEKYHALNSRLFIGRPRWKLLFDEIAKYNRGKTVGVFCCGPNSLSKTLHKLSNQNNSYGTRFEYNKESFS
T1 sequence (P13498 1-195 partner): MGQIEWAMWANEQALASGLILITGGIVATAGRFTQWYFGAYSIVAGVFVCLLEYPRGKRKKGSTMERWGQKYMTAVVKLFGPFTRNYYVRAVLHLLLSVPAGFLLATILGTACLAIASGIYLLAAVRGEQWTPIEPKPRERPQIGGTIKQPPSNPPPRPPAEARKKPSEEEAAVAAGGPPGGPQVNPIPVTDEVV
Protocol: (§1) Activity assays for IC50 determinations were performed as previously described[40],[42] with modifications for covalent inhibitors. […] The estimated final protein concentrations based on the heme’s absorbance (ε414 nm = 131,000 M^–1 cm^–1) were 10–20 nM. Compounds were incubated for 1 h at 25 °C at varying concentrations, and reactions were initiated with 40 μM NADPH. Fluorescence was measured using a ClarioStar plate reader (excitation 572 nm/emission 583 nm).

[3] = target: T2, human NOX5 (Homo sapiens, UniProt Q96PH1); test: Human NOX5 isolated membranes, Amplex Red/horseradish peroxidase coupled assay; format: biochemical; conditions: membrane-embedded, 40 μM NADPH; for IC50: read-out: IC50 on human NOXs, NOX5 (AMPLEX RED)
T2 construct: expressed in transfected cells; host or cells: HEK293 F cells, transient transfection (pEG BacMam vector); isolated membranes
T2 sequence (Q96PH1 1-719 isoform Q96PH1-4): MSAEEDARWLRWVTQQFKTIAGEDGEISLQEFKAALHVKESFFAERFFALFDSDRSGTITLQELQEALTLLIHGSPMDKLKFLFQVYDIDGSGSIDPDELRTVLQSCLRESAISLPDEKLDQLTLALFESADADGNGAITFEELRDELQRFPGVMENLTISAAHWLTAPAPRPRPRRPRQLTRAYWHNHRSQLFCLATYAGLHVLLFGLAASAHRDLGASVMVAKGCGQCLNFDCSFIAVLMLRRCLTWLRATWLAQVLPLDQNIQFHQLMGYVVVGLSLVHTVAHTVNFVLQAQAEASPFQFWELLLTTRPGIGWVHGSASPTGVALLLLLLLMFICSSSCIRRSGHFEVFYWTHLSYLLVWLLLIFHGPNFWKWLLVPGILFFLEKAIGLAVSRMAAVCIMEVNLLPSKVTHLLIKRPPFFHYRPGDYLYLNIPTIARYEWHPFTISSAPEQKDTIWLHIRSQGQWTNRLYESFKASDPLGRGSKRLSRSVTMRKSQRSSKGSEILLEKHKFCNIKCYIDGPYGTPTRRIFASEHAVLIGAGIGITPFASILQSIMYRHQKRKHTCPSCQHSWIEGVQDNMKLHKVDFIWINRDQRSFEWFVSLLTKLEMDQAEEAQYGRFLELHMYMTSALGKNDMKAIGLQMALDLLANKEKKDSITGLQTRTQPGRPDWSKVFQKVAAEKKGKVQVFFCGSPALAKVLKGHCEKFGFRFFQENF
Protocol: as §1

[4] = target: NOX2 (Homo sapiens, UniProt P04839); test: Human NOX2 isolated membranes, MCLA assay; format: biochemical; set-up: NOX2 was expressed as native protein in X-CGD PLB-985 cells transduced with the RD114 pseudotyped MFGS-NOX2 vector; expressed in transfected cells; host or cells: X-CGD PLB-985 cells transduced with MFGS-NOX2; isolated membranes; Cytosolic proteins made in E. coli; conditions: for IC50: membrane-embedded, 240 μM NADPH, read-out: IC50 on human NOXs, NOX2 (MCLA)
Protocol: IC50 determinations were performed as described, with the same aforementioned modifications for covalent inhibition. Briefly, 20 μg of NOX2-p22^phox membranes was added to a reaction mix with a 65 mM sodium phosphate buffer (pH 7.0), 0.5 μM FAD, 130 μM LiDS, 160 nM p67^phox, p47^phox, Rac1 Q61L, and 1 μM MCLA or 200 μM bovine cytochrome c. The estimated final protein concentration based on the heme’s absorbance was 60 nM. Compounds were incubated for 1 h at 25 °C, at varying concentrations. The reaction started by adding 240 μM NADPH, and measurements were taken by using a GloMax plate reader (Promega; MCLA) or a Cary 100 UV–vis spectrophotometer (Varian; cytochrome c).

SMILES | % INHIBITION csNOX5 DEHYDROGENASE DOMAIN [1] [%] | IC50 [2] [µM] | IC50 on human NOXs, NOX5 (AMPLEX RED) [3] | IC50 [3] [µM] | IC50 [4] [µM] | potency against NOX2 relative to VAS2870 (more powerful) ([4]; NOX2 membranes) [fold]
C#CCNC(=O)c1ccc(Cn2nnc3c(Sc4nc5ccccc5o4)ncnc32)cc1 [Compound 8b, (4-((7-Benzo[d]oxazol-2-yl-thio)-3H-[1,2,3]triazole[4,5-d]pyrimidin-3-yl)methyl)-N-(prop-2-in-1-yl)benzamide] | 94.6 ± 1.0 | 57.9 ± 7 | inactive | > 100 | 17.3 ± 2.6 | 
C#CCN(C)Cc1ccc(Cn2nnc3c(Sc4nc5ccccc5o4)ncnc32)cc1 [Compound 9a, N-(4-((7-(Benzo[d]oxazol-2-ylthio)-3H-[1,2,3]triazolo[4,5-d]pyrimidin-3-yl)methyl)benzyl)-N-methylprop-2-yn-1-amine] | 67.3 ± 4.6 | 42 ± 16 |  | 5.2 ± 0.1 | 0.567 ± 0.2 | 2
CCCNC(=O)c1ccc(Cn2nnc3c(Sc4nc5ccccc5o4)ncnc32)cc1 [Compound 8a, (4-((7-Benzo[d]oxazol-2-yl-thio)-3H-[1,2,3]triazole[4,5-d]pyrimidin-3-yl)methyl)-N-(propyl)benzamide] | 95.6 ± 0.1 | 21.8 ± 1.1 |  | 6.5 ± 0.6 | 2.8 ± 0.05 | 
